One experiment concerns the target Recombinant Btk (Homo sapiens, UniProt Q06187). As to the kind of experiment: Btk Kinase Assay (TR-FRET).
The target of experiment [1] is T1, phosphorylated Btk at Tyr223 in Ramos cells (Homo sapiens, UniProt Q06187).
T1 construct: determine the endogenous levels of phosphorylated Btk at Tyr223; endogenous in cells; host or cells: Ramos cells (CRL-1596, ATCC)
As to the kind of experiment: Btk pY223 Cellular Assay (HTRF, Ramos cells). The conditions noted are these: 1 hour compound incubation, stimulated with pervanadate or Na3VO4, read-out: 1050 (nM) Btk pY223. The class given is cell-based. How it is done:
Btk pY223 cellular assay is a HTRF based assay intended to determine the endogenous levels of phosphorylated Btk at Tyr223. Phosphorylated Tyr223 is necessary for full activation of Btk.
Briefly, Ramos cells were serum starved in 0.5% FBS-containing RPMI1640 for 2 hours. Following starvation, the cells were incubated with compounds to be detected at various concentrations in a CO2 incubator for 1 hour. After incubation, cells were stimulated with 1 mM pervanadate (PV) or Na3VO4 (OV) for 20 min. Then, the cells were spinned down and lysed with 1× lysis buffer at RT for 10 min (4× lysis buffer supplied in the kit). During the incubation, 1× antibody mix was prepared by diluting anti-Btk-d2 and anti-pBtk-K in detection buffer (supplied in the kit). […] After that, 18 ul of cell lysate was transferred to the assay plate pre-loaded with antibody solution. After mixing gently and spinning briefly, the plate was sealed up and kept in dark at RT for 18 hours. The fluorescence emission was measured at two different wavelengths (665 nm and 620 nm) on a compatible HTRF reader (PHERAstar FS, BMG).
A general note: Time-resolved FRET reads energy transfer from a long-lived donor to a nearby acceptor.

Chain of Recombinant Btk (Q06187 whole entry): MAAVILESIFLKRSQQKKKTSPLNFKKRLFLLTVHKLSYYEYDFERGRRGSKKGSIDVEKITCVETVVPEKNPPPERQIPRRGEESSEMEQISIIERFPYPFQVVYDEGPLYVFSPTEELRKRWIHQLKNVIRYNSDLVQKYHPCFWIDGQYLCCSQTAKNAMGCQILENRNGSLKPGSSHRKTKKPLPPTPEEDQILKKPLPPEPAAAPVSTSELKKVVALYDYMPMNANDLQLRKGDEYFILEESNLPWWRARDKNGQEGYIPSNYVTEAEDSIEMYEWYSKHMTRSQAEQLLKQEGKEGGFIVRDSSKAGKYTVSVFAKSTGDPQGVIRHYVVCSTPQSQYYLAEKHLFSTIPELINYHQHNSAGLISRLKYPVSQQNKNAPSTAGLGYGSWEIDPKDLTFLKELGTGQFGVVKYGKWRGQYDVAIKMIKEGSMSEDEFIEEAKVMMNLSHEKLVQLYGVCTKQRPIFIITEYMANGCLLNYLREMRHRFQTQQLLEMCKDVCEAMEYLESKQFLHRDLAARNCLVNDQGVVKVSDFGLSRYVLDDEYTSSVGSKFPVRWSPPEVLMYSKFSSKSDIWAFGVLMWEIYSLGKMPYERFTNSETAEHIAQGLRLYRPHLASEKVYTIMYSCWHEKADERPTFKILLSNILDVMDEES
T1 sequence (Q06187 whole entry): as above

For the compound `CN(C)C/C=C/C(=O)N1CCCC(n2nc(-c3ccc(Oc4ccccc4)cc3)c(C(N)=O)c2N)C1` (stereo not shown) [Compound I-4, (E)-5-Amino-1-(1-(4-(dimethylamino)but-2-enoyl)piperidin-3-yl)-3-(4-phenoxyphenyl)-1H-pyrazole-4-carboxamide], the results for the IC50 (on Recombinant Btk; in experiment [1]) were 0.56 nM and 3.6 nM, respectively.

Consider `CC=CC(=O)N1CCCC(n2nc(-c3ccc(Oc4ccccc4)cc3)c(C(N)=O)c2N)C1` (stereo not shown) [Compound I-5, 5-Amino-1-(1-(but-2-enoyl)piperidin-3-yl)-3-(4-phenoxyphenyl)-1H-pyrazole-4-carboxamide], for which the figures for the IC50 (at Recombinant Btk; in experiment [1]) were 2.5 nM and 42.6 nM, respectively.

With `NC(=O)c1c(-c2ccc(Oc3ccccc3)cc2)nn(C2CCCN(C(=O)CCl)C2)c1N` (stereo not shown) [Compound I-6, 5-Amino-1-(1-(2-chloroacetyl)piperidin-3-yl)-3-(4-phenoxyphenyl)-1H-pyrazole-4-carboxamide], the IC50 on Recombinant Btk was determined as 0.22 nM; in experiment [1], 10.4 nM.

As to `CN1CC=C(C(=O)N2CCCC(n3nc(-c4ccc(Oc5ccccc5)cc4)c(C(N)=O)c3N)C2)CC1` (stereo not shown) [Compound I-7, 5-Amino-1-(1-(1-methyl-1,2,3,6-tetrahydropyridine-4-carbonyl)piperidin-3-yl)-3-(4-phenoxyphenyl)-1H-pyrazole-4-carboxamide], at Recombinant Btk, the IC50 came out at 14 nM.

For the compound `C=CS(=O)(=O)N1CCCC(n2nc(-c3ccc(Oc4ccccc4)cc3)c(C(N)=O)c2N)C1` (stereo not shown) [Compound I-8, 5-Amino-3-(4-phenoxyphenyl)-1-(1-(vinylsulfonyl)piperidin-3-yl)-1H-pyrazole-4-carboxamide], the IC50 at Recombinant Btk came to 0.23 nM.

Take `N#CCC(=O)N1CCCC(n2nc(-c3ccc(Oc4ccccc4)cc3)c(C(N)=O)c2N)C1` (stereo not shown) [Compound I-9, 5-Amino-1-(1-(2-cyanoacetyl)piperidin-3-yl)-3-(4-phenoxyphenyl)-1H-pyrazole-4-carboxamide]: the IC50 on Recombinant Btk was found to be 22 nM.

For `CN(C)C(=O)/C=C/CN1CCCC(n2nc(-c3ccc(Oc4ccccc4)cc3)c(C(N)=O)c2N)C1` (stereo not shown) [Compound I-10, (E)-5-Amino-1-(1-(4-(dimethylamino)-4-oxobut-2-enyl)piperidin-3-yl)-3-(4-phenoxyphenyl)-1H-pyrazole-4-carboxamide], at Recombinant Btk, the IC50 is 18 nM.

In the case of `N#C/C=C/CN1CCCC(n2nc(-c3ccc(Oc4ccccc4)cc3)c(C(N)=O)c2N)C1` (stereo not shown) [Compound I-11, (E)-5-Amino-1-(1-(3-cyanoallyl)piperidin-3-yl)-3-(4-phenoxyphenyl)-1H-pyrazole-4-carboxamide], at Recombinant Btk, the IC50 is 7.6 nM.

As to `N#C/C=C\CN1CCCC(n2nc(-c3ccc(Oc4ccccc4)cc3)c(C(N)=O)c2N)C1` (stereo not shown) [Compound I-12, (Z)-5-Amino-1-(1-(3-cyanoallyl)piperidin-3-yl)-3-(4-phenoxyphenyl)-1H-pyrazole-4-carboxamide], at Recombinant Btk, the IC50 is 18 nM.

In the case of `C#CC(=O)N1CCCC(n2nc(-c3ccc(Oc4ccccc4)cc3)c(C(N)=O)c2N)C1` (stereo not shown) [Compound I-13, 5-Amino-3-(4-phenoxyphenyl)-1-(1-propioloylpiperidin-3-yl)-1H-pyrazole-4-carboxamide], the results for the IC50 (at Recombinant Btk; in experiment [1]) were 0.21 nM and 7.5 nM, respectively.

Consider `C=CC(=O)N1CCC[C@@H](n2nc(-c3ccc(Cl)cc3)c(C(N)=O)c2N)C1` [Compound I-14, (R)-1-(1-Acryloylpiperidin-3-yl)-5-amino-3-(4-chlorophenyl)-1H-pyrazole-4-carboxamide], for which the results for the IC50 (on Recombinant Btk; in experiment [1]) were 0.54 nM and 3.3 nM, respectively.

Take `C=CC(=O)N1CCC[C@@H](n2nc(-c3ccc(C)c(OC)c3)c(C(N)=O)c2N)C1` [Compound I-15, (R)-1-(1-Acryloylpiperidin-3-yl)-5-amino-3-(3-methoxy-4-methylphenyl)-1H-pyrazole-4-carboxamide]: the IC50 was found to be 0.24 nM at Recombinant Btk and 0.3 nM in experiment [1].

Regarding `C=CC(=O)N1CCC[C@@H](n2nc(-c3ccc(OC)cc3)c(C(N)=O)c2N)C1` [Compound I-16, (R)-1-(1-Acryloylpiperidin-3-yl)-5-amino-3-(4-methoxyphenyl)-1H-pyrazole-4-carboxamide], the IC50 at Recombinant Btk amounted to 1.4 nM; in experiment [1] it was 17.7 nM.

On to `C=CC(=O)N1CCC[C@@H](n2nc(-c3ccc(OCC4CC4)cc3)c(C(N)=O)c2N)C1` [Compound I-17, (R)-1-(1-Acryloylpiperidin-3-yl)-5-amino-3-(4-(cyclopropylmethoxy)phenyl)-1H-pyrazole-4-carboxamide], for which the IC50 at Recombinant Btk was 0.92 nM.

On to `C=CC(=O)N1CCC[C@@H](n2nc(-c3ccc(OC(C)C)cc3)c(C(N)=O)c2N)C1` [Compound I-18, (R)-1-(1-Acryloylpiperidin-3-yl)-5-amino-3-(4-isopropoxyphenyl)-1H-pyrazole-4-carboxamide], for which the IC50 at Recombinant Btk is 2.4 nM.

As to `C=CC(=O)N1CC2(CC(n3nc(-c4ccc(Oc5ccccc5)cc4)c(C(N)=O)c3N)C2)C1` [Compound I-19, 1-(2-Acryloyl-2-azaspiro[3.3]heptan-6-yl)-5-amino-3-(4-phenoxyphenyl)-1H-pyrazole-4-carboxamide], the IC50 at Recombinant Btk turned out to be 0.15 nM.

As to `C=CC(=O)N1CCC[C@@H](n2nc(-c3ccc(OCC(C)C)cc3)c(C(N)=O)c2N)C1` [Compound I-20, (R)-1-(1-Acryloylpiperidin-3-yl)-5-amino-3-(4-isobutoxyphenyl)-1H-pyrazole-4-carboxamide], the IC50 at Recombinant Btk came out at 0.49 nM.

As for `C=CC(=O)N1CCC[C@@H](n2nc(-c3ccc(Cl)c(OC)c3)c(C(N)=O)c2N)C1` [Compound I-21, (R)-1-(1-Acryloylpiperidin-3-yl)-5-amino-3-(4-chloro-3-methoxyphenyl)-1H-pyrazole-4-carboxamide], on Recombinant Btk, the IC50 came out at 0.18 nM.

In the case of `C=CC(=O)N1CCc2c(c(N)c(C(N)=O)n2-c2ccc(Oc3ccccc3)cc2)C1` [II-1, 5-Acryloyl-3-amino-1-(4-phenoxyphenyl)-4,5,6,7-tetrahydro-1H-pyrrolo[3,2-c]pyridine-2-carboxamide], the IC50 at Recombinant Btk stood at 3.3 nM; in experiment [1], 16.6 nM.

Consider `C=CC(=O)N1CCC(N2CCc3c(c(N)c(C(N)=O)n3-c3ccc(Oc4ccccc4)cc3)C2)C1` (stereo not shown) [II-2, 5-(1-Acryloylpyrrolidin-3-yl)-3-amino-1-(4-phenoxyphenyl)-4,5,6,7-tetrahydro-1H-pyrrolo[3,2-c]pyridine-2-carboxamide], for which the IC50 on Recombinant Btk was determined as 3200 nM.

Regarding `C=CC(=O)NCCN1CCc2c(c(N)c(C(N)=O)n2-c2ccc(Oc3ccccc3)cc2)C1` [II-3, 5-(2-Acrylamidoethyl)-3-amino-1-(4-phenoxyphenyl)-4,5,6,7-tetrahydro-1H-pyrrolo[3,2-c]pyridine-2-carboxamide], on Recombinant Btk, the IC50 turned out to be 480 nM.

Turning to `C=CC(=O)N1CCc2c(c(N)c(C(N)=O)n2-c2ccc(OCc3ccccc3)cc2)C1` [II-4, 5-Acryloyl-3-amino-1-(4-(benzyloxy)phenyl)-4,5,6,7-tetrahydro-1H-pyrrolo[3,2-c]pyridine-2-carboxamide], the IC50 on Recombinant Btk amounted to 25 nM.

With `C=CC(=O)N1Cc2c(N)c(C(N)=O)n(-c3ccc(Oc4ccccc4)cc3)c2C1` [II-5, 5-Acryloyl-3-amino-1-(4-phenoxyphenyl)-1,4,5,6-tetrahydropyrrolo[3,4-b]pyrrole-2-carboxamide], the IC50 on Recombinant Btk came out at 9 nM.

As for `C=CC(=O)N1Cc2c(N)c(C(N)=O)n(-c3ccc(Oc4ccc(C(C)(C)C)cc4)cc3)c2C1` [II-6, 5-Acryloyl-3-amino-1-(4-(4-(tert-butyl)phenoxy)phenyl)-1,4,5,6-tetrahydropyrrolo[3,4-b]pyrrole-2-carboxamide], the IC50 on Recombinant Btk worked out at 34 nM.

`C=CC(=O)Nc1ccc2c(c1)c(N)c(C(N)=O)n2-c1ccc(Oc2ccccc2)cc1` [II-7, 5-Acrylamido-3-amino-1-(4-phenoxyphenyl)-1H-indole-2-carboxamide]: the IC50 was determined as 9.4 nM on Recombinant Btk and 55.6 nM in experiment [1].

As to `C=CC(=O)Nc1ccc2c(N)c(C(N)=O)n(-c3ccc(Oc4ccccc4)cc3)c2c1` [II-8, 6-Acrylamido-3-amino-1-(4-phenoxyphenyl)-1H-indole-2-carboxamide], the IC50 on Recombinant Btk came out at 210 nM.

In the case of `NC(=O)c1c(N)c(C2CCNCC2)cn1-c1ccc(Oc2ccccc2)cc1` [II-9, 3-Amino-1-(4-phenoxyphenyl)-4-(piperidin-4-yl)-1H-pyrrole-2-carboxamide], on Recombinant Btk, the IC50 turned out to be 7600 nM.

`C=CC(=O)N1CCCC(c2cn(-c3ccc(Oc4ccccc4)cc3)c(C(N)=O)c2N)C1` (stereo not shown) [II-10, 4-(1-Acryloylpiperidin-3-yl)-3-amino-1-(4-phenoxyphenyl)-1H-pyrrole-2-carboxamide]: on Recombinant Btk, the IC50 came out at 2.7 nM.

The values are drawn from patent US20150005277A1, “Protein Kinase Inhibitors and Uses Thereof” (Beigene, Ltd., priority 2013, published 2015).
